Where a name gives a salt, the structure may show the parent alone.
How the values were obtained:
[1] = moisture sorption of salts, water content by Karl Fischer titration; format: physicochemical; conditions: for water content (moisture sorption): room temperature; for moisture sorption compared with other salts or forms (in words): comparison of salts/polymorphs of R,R-formoterol
Protocol: Water absorption is a major problem in formulating a medicament for therapeutic use, and therefore a salt that has minimal water absorption offers significant advantages. In a series of experiments various salts of R,R-formoterol were prepared.
The salts were exposed to varying levels of humidity at room temperature for 1 to 28 days, and the samples were analyzed for water content by Karl Fischer titration. The values are given in % w/w.

[2] = system: β2 -selective adrenoceptor; conditions: inhaled; background statement; cited from earlier work
[3] = stability of formoterol salts in the presence of lactose and water; format: physicochemical
From the text: Alternatively, if lactose is to be used, as described below, the dry powder must be packaged in such a manner as to exclude moisture.

β-adrenoceptors = conditions: four isomers, in vitro; cited from earlier work
guinea pig trachea = conditions: four isomers compared; cited from earlier work
[4] = appearance of sample after TGA; format: physicochemical
Protocol: In each experiment, the polymorph was warmed from 30° C. to the designated temperature at 10° C./min and held at the designated temperature for 15 minutes. The loss on drying (LOD) was measured, and the appearance of the material was noted. […] The differences in appearance of each crystal form at the designated temperatures were consistent with the changes in LODs.

[5] = thermal stability of crystal forms, loss on drying by TGA; format: physicochemical; conditions: for % LOD by TGA: held 15 min
Protocol: In each experiment, the polymorph was warmed from 30° C. to the designated temperature at 10° C./min and held at the designated temperature for 15 minutes. The loss on drying (LOD) was measured, and the appearance of the material was noted.

[6] = total impurities of crystal forms after heating; format: physicochemical; conditions: for decomposition (total impurities study): 175° C.
From the text: The two crystal forms of (R,R)-formoterol tartrate were also studied by measuring the total impurities in the material from each of the experiments in Table 6.

[7] = 85% RH (printed RE for the fumarate)

Compound: COc1ccc(C[C@@H](C)NC[C@H](O)c2ccc(O)c(NC=O)c2)cc1 [(R,R)-Formoterol-HCl]
- water content (moisture sorption) ([1]; 11% relative humidity, day 1): 0.5735 % w/w
- water content (moisture sorption) ([1]; 11% relative humidity, day 3): 0.553 % w/w
- water content (moisture sorption) ([1]; 11% relative humidity, day 8): 0.3656 % w/w
- water content (moisture sorption) ([1]; 11% relative humidity, day 14): 0.4385 % w/w
- water content (moisture sorption) ([1]; 11% relative humidity, day 28): 0.2644 % w/w
- water content (moisture sorption) ([1]; 43% relative humidity, day 1): 0.8502 % w/w
- water content (moisture sorption) ([1]; 43% relative humidity, day 3): 1.1636 % w/w
- water content (moisture sorption) ([1]; 43% relative humidity, day 8): 0.8781 % w/w
- water content (moisture sorption) ([1]; 43% relative humidity, day 14): 0.9802 % w/w
- water content (moisture sorption) ([1]; 43% relative humidity, day 28): 0.8133 % w/w
- water absorbed ([1]; 75% RH): 1.3-1.4%
- water content (moisture sorption) ([1]; 75% relative humidity, day 1): 1.5335 % w/w
- water content (moisture sorption) ([1]; 75% relative humidity, day 3): 1.3288 % w/w
- water content (moisture sorption) ([1]; 75% relative humidity, day 8): 1.4931 % w/w
- water content (moisture sorption) ([1]; 75% relative humidity, day 14): 1.4585 % w/w
- water content (moisture sorption) ([1]; 75% relative humidity, day 28): 1.221 % w/w
- water content (moisture sorption) ([1]; 89% relative humidity, day 1): 1.4573 % w/w
- water content (moisture sorption) ([1]; 89% relative humidity, day 3): 2.419 % w/w
- water content (moisture sorption) ([1]; 89% relative humidity, day 8): 1.6487 % w/w
- water content (moisture sorption) ([1]; 89% relative humidity, day 14): 1.5739 % w/w
- water content (moisture sorption) ([1]; 89% relative humidity, day 28): 1.1139 % w/w
- moisture sorption compared with other salts or forms (in words) ([1]; listed as hydrochloride): somewhat better at 43% RE

Compound: COc1ccc(C[C@@H](C)NC[C@H](O)c2ccc(O)c(NC=O)c2)cc1 (relative stereo) [Formoterol, (+/-) N-[2-hydroxy-5-[1-hydroxy-2[[2-(p-methoxyphenyl)-2-propyl]amino]ethyl]phenyl]-formamide]
- bronchodilating effect [2]: long lasting bronchodilating effect

Compound: COc1ccc(C[C@@H](C)NC[C@H](O)c2ccc(O)c(NC=O)c2)cc1 (relative stereo) [racemic (R,R/S,S) formoterol hemifumarate hydrate]
- incompatibility with lactose on encountering moisture [3]: not observed

Compound: COc1ccc(C[C@@H](C)NC[C@H](O)c2ccc(O)c(NC=O)c2)cc1 [(R,R)-isomer]
- order of potency (β-adrenoceptors): (R,R)>>(R,S)=(S,R)>(S,S)
- relaxing activity, rank of potency (guinea pig trachea): most potent

Compound: COc1ccc(C[C@@H](C)NC[C@H](O)c2ccc(O)c(NC=O)c2)cc1 [R,R-formoterol L-tartrate]
- hygroscopicity [1]: non-hygroscopic
- water content (moisture sorption) ([1]; 11% relative humidity, day 1): 0.0956 % w/w
- water content (moisture sorption) ([1]; 11% relative humidity, day 3): 0.1062 % w/w
- water content (moisture sorption) ([1]; 11% relative humidity, day 8): 0.0842 % w/w
- water content (moisture sorption) ([1]; 11% relative humidity, day 14): 0.1377 % w/w
- water content (moisture sorption) ([1]; 11% relative humidity, day 28): 0.0871 % w/w
- water content (moisture sorption) ([1]; 43% relative humidity, day 1): 0.1091 % w/w
- water content (moisture sorption) ([1]; 43% relative humidity, day 3): 0.1406 % w/w
- water content (moisture sorption) ([1]; 43% relative humidity, day 8): 0.0922 % w/w
- water content (moisture sorption) ([1]; 43% relative humidity, day 14): 0.104 % w/w
- water content (moisture sorption) ([1]; 43% relative humidity, day 28): 0.0705 % w/w
- water content (moisture sorption) ([1]; 75% relative humidity, day 1): 0.0895 % w/w
- water content (moisture sorption) ([1]; 75% relative humidity, day 3): 0.1367 % w/w
- water content (moisture sorption) ([1]; 75% relative humidity, day 8): 0.0732 % w/w
- water content (moisture sorption) ([1]; 75% relative humidity, day 14): 0.1146 % w/w
- water content (moisture sorption) ([1]; 75% relative humidity, day 28): 0.0691 % w/w
- water absorbed ([1]; 89% RH): 0.10 to 0.13%
- water content (moisture sorption) ([1]; 89% relative humidity, day 1): 0.1144 % w/w
- water content (moisture sorption) ([1]; 89% relative humidity, day 3): 0.1379 % w/w
- water content (moisture sorption) ([1]; 89% relative humidity, day 8): 0.1104 % w/w
- water content (moisture sorption) ([1]; 89% relative humidity, day 14): 0.1097 % w/w
- water content (moisture sorption) ([1]; 89% relative humidity, day 28): 0.1122 % w/w
- water content (moisture sorption) ([1]; 93% relative humidity, day 1): 0.1346 % w/w
- water content (moisture sorption) ([1]; 93% relative humidity, day 3): 0.2077 % w/w
- water content (moisture sorption) ([1]; 93% relative humidity, day 8): 0.1076 % w/w
- water content (moisture sorption) ([1]; 93% relative humidity, day 14): 0.2972 % w/w
- water content (moisture sorption) ([1]; 93% relative humidity, day 28): 0.1765 % w/w
- moisture sorption compared with other salts or forms (in words) ([1]; listed as L-tartrate of R,R-formoterol): superior to all of the salts tested

Compound: COc1ccc(C[C@H](C)NC[C@@H](O)c2ccc(O)c(NC=O)c2)cc1 [(S,S)]
- order of potency (β-adrenoceptors): (R,R)>>(R,S)=(S,R)>(S,S)

Compound: COc1ccc(C[C@@H](C)NC[C@@H](O)c2ccc(O)c(NC=O)c2)cc1 [(S,R), reference compound]
- order of potency (β-adrenoceptors): (R,R)>>(R,S)=(S,R)>(S,S)

Compound: COc1ccc(C[C@@H](C)NC[C@H](O)c2ccc(O)c(NC=O)c2)cc1 [fumarate]
- water absorbed [1, 7]: 6%
- moisture sorption compared with other salts or forms (in words) [1]: somewhat better at 43% RE

Compound: COc1ccc(C[C@@H](C)NC[C@H](O)c2ccc(O)c(NC=O)c2)cc1 [P1]
- appearance of sample after TGA ([4]; 75° C.): white
- appearance of sample after TGA ([4]; 100° C.): white
- appearance of sample after TGA ([4]; 125° C.): white
- appearance of sample after TGA ([4]; 150° C.): off-white
- appearance of sample after TGA ([4]; 175° C.): brown
- % LOD by TGA ([5]; 75° C.): 0.092%
- % LOD by TGA ([5]; 100° C.): 0.065%
- % LOD by TGA ([5]; 125° C.): 0.230%
- % LOD by TGA ([5]; 150° C.): 0.390%
- LOD in words ([5]; 175° C.): significant LODs, the result of decomposition
- % LOD by TGA ([5]; 175° C.): 10.805%
- decomposition (total impurities study) [6]: nearly completely decomposed
- water absorbed ([1]; 85% RH for 11 days): less than 0.1%
- moisture sorption compared with other salts or forms (in words) [1]: equivalent in moisture sorption

Compound: COc1ccc(C[C@@H](C)NC[C@H](O)c2ccc(O)c(NC=O)c2)cc1 [D-tartrate]
- water absorbed [1, 7]: 0.4-0.5%
- moisture sorption compared with other salts or forms (in words) [1]: somewhat better than the hydrochloride

Compound: COc1ccc(C[C@@H](C)NC[C@H](O)c2ccc(O)c(NC=O)c2)cc1 [(R,R)-Formoterol-SO4]
- water content (moisture sorption) ([1]; 11% relative humidity, day 1): 1.2251 % w/w
- water content (moisture sorption) ([1]; 11% relative humidity, day 3): 1.3892 % w/w
- water content (moisture sorption) ([1]; 11% relative humidity, day 8): 0.9574 % w/w
- water content (moisture sorption) ([1]; 11% relative humidity, day 14): 1.209 % w/w
- water content (moisture sorption) ([1]; 11% relative humidity, day 28): 0.7866 % w/w
- water absorbed ([1]; 43% relative humidity): more than 3 % by weight
- water content (moisture sorption) ([1]; 43% relative humidity, day 1): 2.9647 % w/w
- water content (moisture sorption) ([1]; 43% relative humidity, day 3): 3.4998 % w/w
- water content (moisture sorption) ([1]; 43% relative humidity, day 8): 3.4048 % w/w
- water content (moisture sorption) ([1]; 43% relative humidity, day 14): 2.2985 % w/w
- water content (moisture sorption) ([1]; 43% relative humidity, day 28): 3.1595 % w/w

Compound: COc1ccc(C[C@H](C)NC[C@H](O)c2ccc(O)c(NC=O)c2)cc1 [(R,S), reference compound]
- order of potency (β-adrenoceptors): (R,R)>>(R,S)=(S,R)>(S,S)

Compound: COc1ccc(C[C@@H](C)NC[C@H](O)c2ccc(O)c(NC=O)c2)cc1 [P2]
- appearance of sample after TGA ([4]; 75° C.): white
- appearance of sample after TGA ([4]; 100° C.): white
- appearance of sample after TGA ([4]; 125° C.): off-white
- appearance of sample after TGA ([4]; 150° C.): tan
- appearance of sample after TGA ([4]; 175° C.): brown
- % LOD by TGA ([5]; 75° C.): 0.020%
- % LOD by TGA ([5]; 100° C.): 0.045%
- % LOD by TGA ([5]; 125° C.): 0.305%
- % LOD by TGA ([5]; 150° C.): 1.230%
- LOD in words ([5]; 175° C.): significant LODs, the result of decomposition
- % LOD by TGA ([5]; 175° C.): 12.990%
- total impurities compared with P1 ([6]; 100° C. and higher): higher levels of total impurities
- decomposition (total impurities study) [6]: nearly completely decomposed
- water absorbed ([1]; 85% RH for 11 days): less than 0.1%
- moisture sorption compared with other salts or forms (in words) [1]: equivalent in moisture sorption

From patent publication US6268533A, “Formoterol process” (Sepracor Inc., priority 2000, dated 2001)
